Results reported in PubChem BioAssay AID248 (DTP/NCI, 2004).
Several values for one entry are separate records, joined by “and”; a condition that tells them apart may be missing. Identical values can stand only once. Inconclusive results and toxic doses are left out. No stated cut-off is given here; in the data, active means T/C of 150% or more; inactive means T/C below 125%. Square brackets hold non-standard residues; d marks the D form. Peptide text beside a SMILES is read from it. * marks the point of attachment. Cbz = O=C(OCc1ccccc1)*; Sar = CNCC(=O)O

System: L1210 leukemia ip in BDF1 mice, survival T/C
Assay: NCI In Vivo Anticancer Drug Screen. Data for tumor model L1210 Leukemia (intraperitoneal) in B6D2F1 (BDF1) mice
Settings: endpoint: mean survival time, higher = longer survival
In short: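 Transplantable tumor model; survival measured in treated vs vehicle control mice. Value = treated/control.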

[1] = dose: 100.0 mg/kg/injection, schedule: Q01DX009 (ip), vehicle: saline
[2] = dose: 100.0 mg/kg/injection, schedule: Q04DX003 (ip), vehicle: saline
[3] = dose: 100.0 mg/kg/injection, schedule: Q01DX009 (ip), vehicle: saline with Tween-80
[4] = dose: 200.0 mg/kg/injection, schedule: Q01DX009 (ip), vehicle: saline with Tween-80
[5] = dose: 400.0 mg/kg/injection, schedule: Q01DX009 (ip), vehicle: saline with Tween-80
[6] = dose: 50.0 mg/kg/injection, schedule: Q01DX001 (ip), vehicle: carboxymethylcellulose (CMC)
[7] = dose: 100.0 mg/kg/injection, schedule: Q01DX001 (ip), vehicle: carboxymethylcellulose (CMC)
[8] = dose: 200.0 mg/kg/injection, schedule: Q01DX001 (ip), vehicle: carboxymethylcellulose (CMC)
[9] = dose: 400.0 mg/kg/injection, schedule: Q01DX001 (ip), vehicle: carboxymethylcellulose (CMC)
[10] = dose: 100.0 mg/kg/injection, schedule: Q04DX003 (ip), vehicle: saline with Tween-80
[11] = dose: 200.0 mg/kg/injection, schedule: Q04DX003 (ip), vehicle: saline with Tween-80
[12] = dose: 400.0 mg/kg/injection, schedule: Q04DX003 (ip), vehicle: saline with Tween-80
[13] = dose: 100.0 mg/kg/injection, schedule: Q04DX002 (ip), vehicle: saline with Tween-80
[14] = dose: 50.0 mg/kg/injection, schedule: Q01DX009 (ip), vehicle: Klucel (hydroxypropylcellulose) (HPC)
[15] = dose: 100.0 mg/kg/injection, schedule: Q04DX003 (ip), vehicle: Klucel (hydroxypropylcellulose) (HPC)
[16] = dose: 200.0 mg/kg/injection, schedule: Q04DX003 (ip), vehicle: Klucel (hydroxypropylcellulose) (HPC)
[17] = dose: 400.0 mg/kg/injection, schedule: Q04DX003 (ip), vehicle: Klucel (hydroxypropylcellulose) (HPC)
[18] = dose: 100.0 mg/kg/injection, schedule: Q01DX009 (ip), vehicle: Klucel (hydroxypropylcellulose) (HPC)
[19] = dose: 200.0 mg/kg/injection, schedule: Q01DX009 (ip), vehicle: Klucel (hydroxypropylcellulose) (HPC)

Measured: T/C

COC1OC(CN(CCO)CCO)C2OC(C)(C)OC12 (stereo unspecified)
inactive: dose: 12.5 mg/kg/injection, schedule: Q04DX003 (ip), vehicle: saline 97 % of control | dose: 25.0 mg/kg/injection, schedule: Q01DX009 (ip), vehicle: saline 98 % of control | dose: 25.0 mg/kg/injection, schedule: Q04DX003 (ip), vehicle: saline 89 % of control | dose: 50.0 mg/kg/injection, schedule: Q01DX009 (ip), vehicle: saline 94 % of control | dose: 50.0 mg/kg/injection, schedule: Q04DX003 (ip), vehicle: saline 97 % of control | [1] 89 % of control | [2] 94 % of control | dose: 335.0 mg/kg/injection, schedule: Q01DX009 (ip), vehicle: saline 101 % of control

Cc1cc(=O)oc2cc(OC(=O)Nc3ccc(Cl)cc3C(F)(F)F)ccc12
inactive: [3] 97 % of control | [4] 97 % of control | [5] 92 % of control

CC(N)C(=O)NC(CC(N)=O)C(=O)O (stereo unspecified)
inactive: dose: 25.0 mg/kg/injection, schedule: Q04DX002 (ip), vehicle: saline 95 % of control | [6] 97 % of control | dose: 50.0 mg/kg/injection, schedule: Q04DX002 (ip), vehicle: saline 100 % of control | [7] 97 % of control | dose: 100.0 mg/kg/injection, schedule: Q04DX002 (ip), vehicle: saline 106 % of control | [8] 97 % of control | [9] 95 % of control

O=C(c1ccccc1)C(Oc1ccccc1)c1ccccc1 (stereo unspecified)
inactive: dose: 100.0 mg/kg/injection, schedule: Q04DX002 (ip), vehicle: other 111 % of control | dose: 200.0 mg/kg/injection, schedule: Q04DX002 (ip), vehicle: other 107 % of control | dose: 400.0 mg/kg/injection, schedule: Q04DX002 (ip), vehicle: other 100 % of control

CC(C)COC(=O)COc1ccccc1
inactive: [10] 104 % of control | [11] 104 % of control | [12] 86 % of control

COc1ccc(-c2cc3c(OC)ccc(OC)c3[nH]2)cc1
inactive: dose: 100.0 mg/kg/injection, schedule: Q04DX002 (ip), vehicle: Klucel (hydroxypropylcellulose) (HPC) 93 % of control | dose: 200.0 mg/kg/injection, schedule: Q04DX002 (ip), vehicle: Klucel (hydroxypropylcellulose) (HPC) 102 % of control | dose: 400.0 mg/kg/injection, schedule: Q04DX002 (ip), vehicle: Klucel (hydroxypropylcellulose) (HPC) 93 % of control

CC(C)C(N)(CCCN(C)C)c1cccc2ccccc12 (stereo unspecified)
inactive: [13] 98 % of control

O=S(=O)(CC1CC2C=CC1C2)c1ccc(Br)cc1 (stereo unspecified)
inactive: [10] 108 % of control | [11] 101 % of control | [12] 101 % of control

OC(c1ccc(C2CC2)cc1)(c1ccc(C2CC2)cc1)c1ccc(C2CC2)cc1
inactive: [10] 104 % of control | [11] 102 % of control | [12] 91 % of control

N#Cc1ccc2cn[nH]c2c1
inactive: [10] 92 % of control | [11] 101 % of control | [12] 99 % of control

COc1nc(N)c(C#N)cc1C#N
inactive: dose: 12.5 mg/kg/injection, schedule: Q01DX009 (ip), vehicle: Klucel (hydroxypropylcellulose) (HPC) 96 % of control | dose: 25.0 mg/kg/injection, schedule: Q01DX009 (ip), vehicle: Klucel (hydroxypropylcellulose) (HPC) 102 % of control | [14] 93 % of control | [15] 92 % of control

CC(C)Nc1ccc(C(=O)O)cc1
inactive: dose: 100.0 mg/kg/injection, schedule: Q01DX001 (ip), vehicle: Klucel (hydroxypropylcellulose) (HPC) 100 % of control | [15] 98 % of control | dose: 200.0 mg/kg/injection, schedule: Q01DX001 (ip), vehicle: Klucel (hydroxypropylcellulose) (HPC) 91 % of control | [16] 100 % of control | dose: 400.0 mg/kg/injection, schedule: Q01DX001 (ip), vehicle: Klucel (hydroxypropylcellulose) (HPC) 102 % of control | [17] 100 % of control

CCCCCNC(=S)Nc1ccccc1
inactive: dose: 38.0 mg/kg/injection, schedule: Q04DX003 (ip), vehicle: other 98 % of control | dose: 75.0 mg/kg/injection, schedule: Q01DX001 (ip), vehicle: other 98 % of control | dose: 75.0 mg/kg/injection, schedule: Q04DX003 (ip), vehicle: other 102 % of control | dose: 150.0 mg/kg/injection, schedule: Q01DX001 (ip), vehicle: other 112 % of control | dose: 150.0 mg/kg/injection, schedule: Q04DX003 (ip), vehicle: other 96 % of control | dose: 300.0 mg/kg/injection, schedule: Q01DX001 (ip), vehicle: other 110 % of control

CNC(=O)NCC1OC(OC)C(O)C(O)C1O (stereo unspecified)
inactive: [15] 100 % of control | [16] 107 % of control | [17] 100 % of control

O=S(=O)([O-])Sn1c(-c2ccccc2)c[n+]2ccccc12
inactive: dose: 5.0 mg/kg/injection, schedule: Q01DX009 (ip), vehicle: saline 96 % of control | dose: 10.0 mg/kg/injection, schedule: Q01DX001 (ip), vehicle: saline 102 % of control | dose: 10.0 mg/kg/injection, schedule: Q01DX009 (ip), vehicle: saline 101 % of control | dose: 10.0 mg/kg/injection, schedule: Q04DX003 (ip), vehicle: saline 100 % of control | dose: 20.0 mg/kg/injection, schedule: Q01DX001 (ip), vehicle: saline 100 % of control | dose: 20.0 mg/kg/injection, schedule: Q01DX009 (ip), vehicle: saline 120 % of control | dose: 20.0 mg/kg/injection, schedule: Q04DX003 (ip), vehicle: saline 97 % of control | dose: 40.0 mg/kg/injection, schedule: Q01DX001 (ip), vehicle: saline 96 % of control | dose: 40.0 mg/kg/injection, schedule: Q04DX003 (ip), vehicle: saline 106 % of control

CCc1nc2ccccc2c(=O)n1-c1ccc(Cl)cc1
inactive: dose: 50.0 mg/kg/injection, schedule: Q01DX009 (ip), vehicle: saline with Tween-80 92 % of control | [3] 95 % of control

CC(C(=O)c1ccccc1)S(=O)(=O)O (stereo unspecified)
inactive: [2] 102 % of control | dose: 200.0 mg/kg/injection, schedule: Q04DX003 (ip), vehicle: saline 94 % of control | dose: 400.0 mg/kg/injection, schedule: Q04DX003 (ip), vehicle: saline 96 % of control

CN(CC(=O)O)C(=O)CNC(=O)OCc1ccccc1 (Cbz-Gly-[Sar]-OH)
inactive: [14] 105 % of control | dose: 50.0 mg/kg/injection, schedule: Q04DX003 (ip), vehicle: Klucel (hydroxypropylcellulose) (HPC) 97 % of control | [18] 94 % of control | [15] 97 % of control | [19] 91 % of control | [16] 98 % of control

CC(C)OP(=O)(NC12CC3CC(CC(C3)C1)C2)OC(C)C
inactive: [18] 103 % of control | [15] 95 % of control | [19] 100 % of control | [16] 96 % of control | dose: 400.0 mg/kg/injection, schedule: Q01DX009 (ip), vehicle: Klucel (hydroxypropylcellulose) (HPC) 90 % of control | [17] 100 % of control

COc1ccccc1NC(=O)Nc1ccc(S(N)(=O)=O)cc1
inactive: dose: 100.0 mg/kg/injection, schedule: Q01DX001 (ip), vehicle: saline with Tween-80 97 % of control | [3] 101 % of control and 106 % of control | [13] 98 % of control and 103 % of control | [10] 94 % of control | dose: 200.0 mg/kg/injection, schedule: Q01DX001 (ip), vehicle: saline with Tween-80 111 % of control | [4] 98 % of control and 116 % of control | dose: 200.0 mg/kg/injection, schedule: Q04DX002 (ip), vehicle: saline with Tween-80 104 % of control | [11] 90 % of control | dose: 400.0 mg/kg/injection, schedule: Q01DX001 (ip), vehicle: saline with Tween-80 97 % of control | [5] 97 % of control and 98 % of control | dose: 400.0 mg/kg/injection, schedule: Q04DX002 (ip), vehicle: saline with Tween-80 95 % of control | [12] 100 % of control

Cc1cccc(NC(=O)OCCN(CCOC(=O)Nc2cccc(C)c2)Cc2ccccc2)c1
inactive: [6] 90 % of control | [7] 98 % of control | [8] 104 % of control | [9] 90 % of control

O=C(Nc1cccc(F)c1)N(CCO)C1CCCCC1
inactive: [1] 105 % of control | dose: 200.0 mg/kg/injection, schedule: Q01DX009 (ip), vehicle: saline 113 % of control | dose: 400.0 mg/kg/injection, schedule: Q01DX009 (ip), vehicle: saline 100 % of control
